Experimental data reported in ChEMBL document CHEMBL5715260, “Selectivity Literature for EUbOPEN Chemogenomic Library” (2024).
One block for each molecule: values may come before it.

Columns and labels:
[1] = target: Nuclear receptor subfamily 2 group E member 1 (Homo sapiens) (UniProt Q9Y466); experiment: Selectivity interaction (Reporter gene assay) EUB0001478a NR2E1; parameters: recommended concentration 1 uM
[2] = target: T1, Retinoic acid receptor RXR-alpha (Homo sapiens) (UniProt P19793); experiment: Selectivity interaction (Reporter gene assay) EUB0001478a RXRA; parameters: recommended concentration 1 uM
T1 sequence (whole entry): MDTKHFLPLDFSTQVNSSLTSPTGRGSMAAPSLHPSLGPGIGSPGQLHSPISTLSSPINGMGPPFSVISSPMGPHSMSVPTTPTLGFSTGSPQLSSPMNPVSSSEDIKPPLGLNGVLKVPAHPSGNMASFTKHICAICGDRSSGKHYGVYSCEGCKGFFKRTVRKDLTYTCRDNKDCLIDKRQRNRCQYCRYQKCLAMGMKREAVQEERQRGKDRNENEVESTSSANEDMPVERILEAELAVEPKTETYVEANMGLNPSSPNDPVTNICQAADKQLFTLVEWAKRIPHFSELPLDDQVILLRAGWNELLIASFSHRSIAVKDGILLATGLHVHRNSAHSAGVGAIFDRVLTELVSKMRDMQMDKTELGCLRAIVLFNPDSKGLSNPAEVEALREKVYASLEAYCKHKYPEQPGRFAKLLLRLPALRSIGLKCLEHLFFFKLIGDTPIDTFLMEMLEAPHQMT

[3] = target: Steroidogenic factor 1 (Homo sapiens) (UniProt Q13285); experiment: Selectivity interaction (Reporter gene assay) EUB0001478a NR5A1; parameters: recommended concentration 1 uM
Chain of Steroidogenic factor 1 (Homo sapiens) (Q13285 whole entry): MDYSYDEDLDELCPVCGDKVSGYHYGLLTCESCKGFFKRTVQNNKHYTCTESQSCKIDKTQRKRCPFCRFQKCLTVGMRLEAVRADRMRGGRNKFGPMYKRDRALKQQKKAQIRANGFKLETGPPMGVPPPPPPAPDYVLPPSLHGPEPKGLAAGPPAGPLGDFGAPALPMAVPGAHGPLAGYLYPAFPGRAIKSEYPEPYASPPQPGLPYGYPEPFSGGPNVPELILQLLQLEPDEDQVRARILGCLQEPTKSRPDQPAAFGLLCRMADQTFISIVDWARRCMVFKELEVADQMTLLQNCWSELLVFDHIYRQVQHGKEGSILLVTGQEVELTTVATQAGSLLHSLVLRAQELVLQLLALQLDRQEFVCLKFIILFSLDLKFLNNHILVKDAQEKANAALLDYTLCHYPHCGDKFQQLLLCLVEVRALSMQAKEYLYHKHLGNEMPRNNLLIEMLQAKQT

[4] = target: Nuclear receptor subfamily 4immunitygroup A member 1 (Homo sapiens) (UniProt P22736); experiment: Selectivity interaction (Reporter gene assay) EUB0001478a NR4A1; parameters: recommended concentration 1 uM
Chain of Nuclear receptor subfamily 4immunitygroup A member 1 (Homo sapiens) (P22736 whole entry): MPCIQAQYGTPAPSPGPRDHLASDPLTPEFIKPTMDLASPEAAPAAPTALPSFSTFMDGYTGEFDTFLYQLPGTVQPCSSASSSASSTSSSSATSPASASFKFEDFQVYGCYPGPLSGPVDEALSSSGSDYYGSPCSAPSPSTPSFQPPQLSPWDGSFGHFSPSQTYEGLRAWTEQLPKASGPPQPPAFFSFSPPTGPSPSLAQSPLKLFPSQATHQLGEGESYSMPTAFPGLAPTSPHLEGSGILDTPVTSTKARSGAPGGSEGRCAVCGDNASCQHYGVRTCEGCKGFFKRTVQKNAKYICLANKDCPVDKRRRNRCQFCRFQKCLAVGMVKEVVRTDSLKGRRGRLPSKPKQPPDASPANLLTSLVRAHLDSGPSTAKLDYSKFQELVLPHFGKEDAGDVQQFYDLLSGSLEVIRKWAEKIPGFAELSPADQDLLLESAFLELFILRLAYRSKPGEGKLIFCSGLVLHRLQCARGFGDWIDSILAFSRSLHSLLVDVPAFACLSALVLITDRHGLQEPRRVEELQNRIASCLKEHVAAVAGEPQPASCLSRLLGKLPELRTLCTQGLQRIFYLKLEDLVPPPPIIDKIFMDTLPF

[5] = target: T2, Hepatocyte nuclear factor 4-alpha (Homo sapiens) (UniProt P41235); experiment: Selectivity interaction (Reporter gene assay) EUB0001478a HNF4A; parameters: recommended concentration 1 uM
T2 sequence (whole entry): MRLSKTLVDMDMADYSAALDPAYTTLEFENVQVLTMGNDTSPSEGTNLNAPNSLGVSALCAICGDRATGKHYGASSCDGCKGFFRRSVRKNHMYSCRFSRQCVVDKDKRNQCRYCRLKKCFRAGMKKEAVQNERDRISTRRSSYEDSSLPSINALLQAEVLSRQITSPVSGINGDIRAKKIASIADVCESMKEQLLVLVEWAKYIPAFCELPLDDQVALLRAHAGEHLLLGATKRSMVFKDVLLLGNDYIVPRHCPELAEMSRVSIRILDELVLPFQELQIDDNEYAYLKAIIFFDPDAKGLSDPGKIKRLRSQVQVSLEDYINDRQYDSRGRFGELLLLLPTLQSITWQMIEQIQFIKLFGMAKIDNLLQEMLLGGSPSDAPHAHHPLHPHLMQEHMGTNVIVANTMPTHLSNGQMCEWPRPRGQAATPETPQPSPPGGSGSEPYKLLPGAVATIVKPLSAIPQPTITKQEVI

[6] = target: T3, Alpha trans-inducing protein (Human alphaherpesvirus 1) (UniProt A0A5J6DW59); experiment: Selectivity interaction (Reporter gene assay) EUB0001478a UL48; parameters: recommended concentration 1 uM
T3 sequence (A0A5J6DW59 as listed by the source): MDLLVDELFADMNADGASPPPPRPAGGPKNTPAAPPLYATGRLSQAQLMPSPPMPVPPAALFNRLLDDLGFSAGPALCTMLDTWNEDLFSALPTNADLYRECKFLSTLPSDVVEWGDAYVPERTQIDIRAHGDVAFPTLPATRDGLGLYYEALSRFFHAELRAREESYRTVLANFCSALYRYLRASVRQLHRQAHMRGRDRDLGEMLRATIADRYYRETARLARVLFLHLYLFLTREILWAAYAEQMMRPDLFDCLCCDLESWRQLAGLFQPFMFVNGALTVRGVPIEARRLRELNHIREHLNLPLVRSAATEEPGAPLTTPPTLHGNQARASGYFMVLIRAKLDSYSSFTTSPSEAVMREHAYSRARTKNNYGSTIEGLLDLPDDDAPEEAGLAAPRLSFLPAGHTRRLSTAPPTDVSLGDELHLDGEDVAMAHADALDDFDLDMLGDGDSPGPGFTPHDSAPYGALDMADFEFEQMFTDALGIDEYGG

[7] = target: T4, Nuclear receptor subfamily 2 group C member 1 (Homo sapiens) (UniProt P13056); experiment: Selectivity interaction (Reporter gene assay) EUB0001478a NR2C1; parameters: recommended concentration 1 uM
T4 sequence (whole entry): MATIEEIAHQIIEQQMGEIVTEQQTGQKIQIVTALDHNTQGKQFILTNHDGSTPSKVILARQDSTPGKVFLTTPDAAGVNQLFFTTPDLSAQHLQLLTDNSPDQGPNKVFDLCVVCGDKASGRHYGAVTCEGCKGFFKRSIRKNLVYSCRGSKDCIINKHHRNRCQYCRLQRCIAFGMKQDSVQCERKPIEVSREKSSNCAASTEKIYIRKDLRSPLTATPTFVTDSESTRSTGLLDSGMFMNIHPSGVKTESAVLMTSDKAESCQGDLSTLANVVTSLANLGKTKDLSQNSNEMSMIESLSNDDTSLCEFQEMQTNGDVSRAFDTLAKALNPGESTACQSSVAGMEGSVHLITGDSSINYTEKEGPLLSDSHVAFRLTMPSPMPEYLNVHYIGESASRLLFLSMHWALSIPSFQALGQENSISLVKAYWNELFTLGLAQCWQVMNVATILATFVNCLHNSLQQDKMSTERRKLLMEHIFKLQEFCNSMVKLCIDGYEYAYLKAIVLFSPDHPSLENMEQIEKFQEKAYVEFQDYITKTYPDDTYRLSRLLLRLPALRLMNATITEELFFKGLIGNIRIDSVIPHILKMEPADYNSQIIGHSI

[8] = target: T2, Hepatocyte nuclear factor 4-alpha (Homo sapiens); experiment: Selectivity interaction (Reporter gene assay) EUB0001174a HNF4A; parameters: recommended concentration 1 uM
[9] = target: T1, Retinoic acid receptor RXR-alpha (Homo sapiens); experiment: Selectivity interaction (Reporter gene assay) EUB0001174a RXRA; parameters: recommended concentration 1 uM; details: reference bexarotene 1 uM, Selectivity number of off-targets 0.0, Selectivity number of targets 1.0, Source Knowledge inhouse
[10] = target: Steroidogenic factor 1 (Homo sapiens) (UniProt Q13285); experiment: Selectivity interaction (Reporter gene assay) EUB0001174a NR5A1; parameters: recommended concentration 1 uM
[11] = target: Nuclear receptor subfamily 2 group E member 1 (Homo sapiens) (UniProt Q9Y466); experiment: Selectivity interaction (Reporter gene assay) EUB0001174a NR2E1; parameters: recommended concentration 1 uM; details: screened at recom. conc., Selectivity number of off-targets 1.0, Selectivity number of targets 5.0, Source Knowledge inhouse
[12] = target: T5, Oxysterols receptor LXR-beta (Homo sapiens) (UniProt P55055); experiment: Selectivity interaction (Reporter gene assay) EUB0001174a NR1H2; parameters: recommended concentration 1 uM; details: screened at recom. conc., Selectivity number of off-targets 1.0, Selectivity number of targets 19.0, Source Knowledge inhouse
T5 sequence (whole entry): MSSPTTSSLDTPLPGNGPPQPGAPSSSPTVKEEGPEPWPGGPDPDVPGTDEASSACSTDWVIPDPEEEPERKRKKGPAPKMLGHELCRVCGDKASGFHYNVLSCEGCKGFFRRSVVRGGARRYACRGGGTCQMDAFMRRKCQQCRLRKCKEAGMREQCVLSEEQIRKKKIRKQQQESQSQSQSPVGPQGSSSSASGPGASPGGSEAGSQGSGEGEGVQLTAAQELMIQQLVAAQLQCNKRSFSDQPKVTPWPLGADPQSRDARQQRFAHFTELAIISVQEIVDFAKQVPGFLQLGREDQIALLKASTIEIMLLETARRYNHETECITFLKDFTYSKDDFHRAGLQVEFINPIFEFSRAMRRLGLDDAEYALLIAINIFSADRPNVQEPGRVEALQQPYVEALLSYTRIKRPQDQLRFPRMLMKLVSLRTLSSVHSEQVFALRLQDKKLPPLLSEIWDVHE

[13] = target: Nuclear receptor subfamily 4immunitygroup A member 1 (Homo sapiens) (UniProt P22736); experiment: Selectivity interaction (Reporter gene assay) EUB0001174a NR4A1; parameters: recommended concentration 1 uM
[14] = target: T3, Alpha trans-inducing protein (Human alphaherpesvirus 1); experiment: Selectivity interaction (Reporter gene assay) EUB0001174a UL48; parameters: recommended concentration 1 uM
[15] = target: Oxysterols receptor LXR-alpha (Homo sapiens) (UniProt Q13133); experiment: Selectivity interaction (Reporter gene assay) EUB0001174a NR1H3; parameters: recommended concentration 1 uM; details: screened at recom. conc., Selectivity number of off-targets 1.0, Selectivity number of targets 19.0, Source Knowledge inhouse
Chain of Oxysterols receptor LXR-alpha (Homo sapiens) (Q13133 whole entry): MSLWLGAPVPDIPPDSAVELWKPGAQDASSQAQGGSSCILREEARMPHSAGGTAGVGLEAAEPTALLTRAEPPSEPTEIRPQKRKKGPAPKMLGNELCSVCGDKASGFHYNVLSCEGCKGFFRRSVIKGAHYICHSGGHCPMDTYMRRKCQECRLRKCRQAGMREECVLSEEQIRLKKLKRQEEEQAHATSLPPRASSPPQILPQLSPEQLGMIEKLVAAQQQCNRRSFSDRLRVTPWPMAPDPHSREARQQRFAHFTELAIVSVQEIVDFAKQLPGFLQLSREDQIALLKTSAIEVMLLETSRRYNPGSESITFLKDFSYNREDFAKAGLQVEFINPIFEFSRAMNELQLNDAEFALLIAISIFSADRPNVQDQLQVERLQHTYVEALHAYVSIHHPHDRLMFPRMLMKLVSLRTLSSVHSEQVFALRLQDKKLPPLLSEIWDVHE

[16] = target: T4, Nuclear receptor subfamily 2 group C member 1 (Homo sapiens); experiment: Selectivity interaction (Reporter gene assay) EUB0001174a NR2C1; parameters: recommended concentration 1 uM
[17] = target: T4, Nuclear receptor subfamily 2 group C member 1 (Homo sapiens); experiment: Selectivity interaction (Reporter gene assay) EUB0001482aCl NR2C1; parameters: recommended concentration 10 uM
[18] = target: T2, Hepatocyte nuclear factor 4-alpha (Homo sapiens); experiment: Selectivity interaction (Reporter gene assay) EUB0001482aCl HNF4A; parameters: recommended concentration 10 uM
[19] = target: Nuclear receptor subfamily 4immunitygroup A member 1 (Homo sapiens) (UniProt P22736); experiment: Selectivity interaction (Reporter gene assay) EUB0001482aCl NR4A1; parameters: recommended concentration 10 uM
[20] = target: Nuclear receptor subfamily 2 group E member 1 (Homo sapiens) (UniProt Q9Y466); experiment: Selectivity interaction (Reporter gene assay) EUB0001482aCl NR2E1; parameters: recommended concentration 10 uM
[21] = target: Steroidogenic factor 1 (Homo sapiens) (UniProt Q13285); experiment: Selectivity interaction (Reporter gene assay) EUB0001482aCl NR5A1; parameters: recommended concentration 10 uM
[22] = target: T1, Retinoic acid receptor RXR-alpha (Homo sapiens); experiment: Selectivity interaction (Reporter gene assay) EUB0001482aCl RXRA; parameters: recommended concentration 10 uM; details: reference bexarotene 1 uM, Selectivity number of off-targets 0.0, Selectivity number of targets 1.0, Source Knowledge inhouse
[23] = target: T3, Alpha trans-inducing protein (Human alphaherpesvirus 1); experiment: Selectivity interaction (Reporter gene assay) EUB0001482aCl UL48; parameters: recommended concentration 10 uM
[24] = target: T2, Hepatocyte nuclear factor 4-alpha (Homo sapiens); experiment: Selectivity interaction (Reporter gene assay) EUB0001477a HNF4A; parameters: recommended concentration 1 uM
[25] = target: T3, Alpha trans-inducing protein (Human alphaherpesvirus 1); experiment: Selectivity interaction (Reporter gene assay) EUB0001477a UL48; parameters: recommended concentration 1 uM
[26] = target: Nuclear receptor subfamily 4immunitygroup A member 1 (Homo sapiens) (UniProt P22736); experiment: Selectivity interaction (Reporter gene assay) EUB0001477a NR4A1; parameters: recommended concentration 1 uM
[27] = target: Nuclear receptor subfamily 2 group E member 1 (Homo sapiens) (UniProt Q9Y466); experiment: Selectivity interaction (Reporter gene assay) EUB0001477a NR2E1; parameters: recommended concentration 1 uM
[28] = target: T4, Nuclear receptor subfamily 2 group C member 1 (Homo sapiens); experiment: Selectivity interaction (Reporter gene assay) EUB0001477a NR2C1; parameters: recommended concentration 1 uM
[29] = target: T1, Retinoic acid receptor RXR-alpha (Homo sapiens); experiment: Selectivity interaction (Reporter gene assay) EUB0001477a RXRA; parameters: recommended concentration 1 uM; details: reference bexarotene 1 uM, Selectivity number of off-targets 0.0, Selectivity number of targets 1.0, Source Knowledge inhouse
[30] = target: Steroidogenic factor 1 (Homo sapiens) (UniProt Q13285); experiment: Selectivity interaction (Reporter gene assay) EUB0001477a NR5A1; parameters: recommended concentration 1 uM
[31] = target: Nuclear receptor subfamily 4immunitygroup A member 1 (Homo sapiens) (UniProt P22736); experiment: Selectivity interaction (Reporter gene assay) EUB0001169a NR4A1; parameters: recommended concentration 1 uM
[32] = target: T2, Hepatocyte nuclear factor 4-alpha (Homo sapiens); experiment: Selectivity interaction (Reporter gene assay) EUB0001169a HNF4A; parameters: recommended concentration 1 uM
[33] = target: T3, Alpha trans-inducing protein (Human alphaherpesvirus 1); experiment: Selectivity interaction (Reporter gene assay) EUB0001169a UL48; parameters: recommended concentration 1 uM
[34] = target: Steroidogenic factor 1 (Homo sapiens) (UniProt Q13285); experiment: Selectivity interaction (Reporter gene assay) EUB0001169a NR5A1; parameters: recommended concentration 1 uM; details: screened at recom. conc., Selectivity number of off-targets 1.0, Selectivity number of targets 5.0, Source Knowledge inhouse
[35] = target: T4, Nuclear receptor subfamily 2 group C member 1 (Homo sapiens); experiment: Selectivity interaction (Reporter gene assay) EUB0001169a NR2C1; parameters: recommended concentration 1 uM
[36] = target: T1, Retinoic acid receptor RXR-alpha (Homo sapiens); experiment: Selectivity interaction (Reporter gene assay) EUB0001169a RXRA; parameters: recommended concentration 1 uM
[37] = target: Nuclear receptor subfamily 2 group E member 1 (Homo sapiens) (UniProt Q9Y466); experiment: Selectivity interaction (Reporter gene assay) EUB0001169a NR2E1; parameters: recommended concentration 1 uM

Chain of Nuclear receptor subfamily 2 group E member 1 (Homo sapiens) (Q9Y466 whole entry): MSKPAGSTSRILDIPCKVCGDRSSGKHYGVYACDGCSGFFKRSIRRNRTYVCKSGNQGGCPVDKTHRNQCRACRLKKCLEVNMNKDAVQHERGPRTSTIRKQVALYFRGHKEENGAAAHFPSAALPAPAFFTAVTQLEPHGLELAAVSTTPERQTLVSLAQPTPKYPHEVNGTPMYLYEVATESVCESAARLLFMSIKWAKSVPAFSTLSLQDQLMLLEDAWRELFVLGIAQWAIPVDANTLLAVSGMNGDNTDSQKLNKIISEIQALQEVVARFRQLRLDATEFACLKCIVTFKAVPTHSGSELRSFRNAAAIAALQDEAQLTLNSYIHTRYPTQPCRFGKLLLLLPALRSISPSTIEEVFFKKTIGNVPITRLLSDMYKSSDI

Fold activation [1]: 1.03
Relative activation [2]: 0.656%
Remaining activity [3]: 0.937
Fold activation [4]: 1.22
Remaining activity [5]: 0.883
P-value [6]: 6.76e-09
Fold activation [7]: 1.06
Compound: C=C1/C(=C\C=C2/CCC[C@]3(C)[C@@H]([C@H](C)CCCC(C)(C)O)CC[C@@H]23)C[C@@H](O)C[C@@H]1O

Fold activation [24]: 1.11
P-value [25]: 0.000158
Remaining activity [26]: 0.934
Remaining activity [27]: 0.989
Fold activation [28]: 1.23
Relative activation [29]: 0.637%
Fold activation [30]: 1.19
Compound: Clc1ccc(-c2nc3sccn3c2/C=N/OCc2ccc(Cl)c(Cl)c2)cc1

Further lines, the molecule ahead of its results:

Compound: COc1cccc(Cn2cc(C(=O)Nc3ccc(C)c(S(=O)(=O)N4CCOCC4)c3)c(-c3ccc(C)cc3)n2)c1
Fold activation [8]: 1.1
Relative activation [9]: 0.49%
Remaining activity [10]: 0.982
Remaining activity [11]: 0.432
Remaining activity [12]: 0.617
Remaining activity [13]: 0.847
P-value [14]: 1.23e-07
Remaining activity [15]: 0.724
Remaining activity [16]: 0.543

Compound: C[C@H](CCOc1cccc(CC(=O)O)c1)N(Cc1cccc(C(F)(F)F)c1Cl)CC(c1ccccc1)c1ccccc1
Fold activation [17]: 1.42
Fold activation [18]: 1.02
Fold activation [19]: 1.25
Fold activation [20]: 1.41
Fold activation [21]: 1.11
Relative activation [22]: 0.905%
P-value [23]: 0.0185

Compound: O=C(O)c1cc(F)c2nc(N3[C@@H]4CC[C@H]3C[C@@H](OCc3c(-c5ccccc5OC(F)(F)F)noc3C3CC3)C4)sc2c1
Remaining activity [31]: 0.696
Remaining activity [32]: 0.655
P-value [33]: 0.00151
Remaining activity [34]: 0.47
Fold activation [35]: 1.28
Relative activation [36]: 0.815%
Remaining activity [37]: 0.961
